Measured values: ChEMBL document CHEMBL1146606, “CoMFA and homology-based models of the glycine binding site of N-methyl-d-aspartate receptor” (J Med Chem, 2003)

How the values were obtained:
[1] = biological target: Glutamate [NMDA] receptor; assay: Compound was tested for inhibition of [3H]DCKA binding to N-methyl-D-aspartate glutamate receptor; type: protein-complex assay; parameters: unit not given here
[2] = biological target: Glutamate [NMDA] receptor; assay: Inhibition of [3H]DCKA binding to N-methyl-D-aspartate glutamate receptor; type: protein-complex assay

Compound | Log 1/IC50 [1] | IC50 [2] [nM]
Oc1nc2cc3c(cc2nc1O)CCC3 | -1.17 | 15000
Cc1cc(C)c2c(O)c([N+](=O)[O-])c(O)nc2c1 | 0.54 | 290
Oc1nc2cc3ccccc3cc2nc1O | -1.2 | 16000
Oc1nc2cnccc2c(O)c1-c1cccc(Oc2ccccc2)c1 | -0.73 | 5400
O=c1[nH]c2cc(Cl)c(Cl)c([N+](=O)[O-])c2[nH]c1=O [LICOSTINEL] | 2.23 | 5.9
Oc1nc2c(F)c(F)c(F)c(F)c2nc1O | 0.14 | 730
Cc1cc(C)c2c(O)c(N=O)c(O)nc2c1 | 1.43 | 37
COc1cccc(-c2c(O)nc3cc(Cl)cnc3c2O)c1 | -0.46 | 2900
O=[N+]([O-])c1c(O)nc2ccccc2c1O | -1.53 | 34000
O=Nc1c(O)nc2cccc(Cl)c2c1O | -0.64 | 4400
COc1cc2nc(O)c(O)nc2c(O)c1OC | -1.23 | 17000
Oc1nc2cccnc2c(O)c1-c1ccccc1 | -2 | > 100000
Oc1nc2ncccc2c(O)c1-c1ccccc1 | -2 | > 100000
Nc1c(F)cc2nc(O)c(O)nc2c1[N+](=O)[O-] | -1.04 | 11000
Oc1nc2cc(Cl)cnc2c(O)c1-c1cccc(Oc2ccccc2)c1 | 0.96 | 110
CCSc1c(Cl)cc2nc(O)c(O)nc2c1[N+](=O)[O-] | 0.19 | 640
N#Cc1cc([N+](=O)[O-])c2nc(O)c(O)nc2c1 | -0.45 | 2800
Oc1nc2cc(Cl)cnc2c(O)c1-c1ccccc1 | -0.52 | 3300
O=Nc1c(O)nc2c(F)c(F)c(F)c(F)c2c1O | -0.52 | 3300
Cc1c(Cl)cc2nc(O)c(O)nc2c1[N+](=O)[O-] | 2.33 | 4.7
Oc1nc2ccncc2c(O)c1-c1cccc(Oc2ccccc2)c1 | -1.3 | 20000
Cc1c(C#N)cc2nc(O)c(O)nc2c1[N+](=O)[O-] | 1.14 | 73
O=[N+]([O-])c1cccc(-c2c(O)nc3cc(Cl)cnc3c2O)c1 | -0.87 | 7400
CCc1cc2nc(O)c(O)nc2c([N+](=O)[O-])c1Cl | 1.54 | 29
CCc1c(Cl)cc2nc(O)c(O)nc2c1[N+](=O)[O-] | 0.89 | 130
Oc1nc2cc3c(cc2nc1O)OCO3 | -2 | > 100000
CCc1cc2nc(O)c(O)nc2c([N+](=O)[O-])c1Br | 1.09 | 82

Compound | Log 1/IC50 [1] | IC50 [2] [nM]
Cc1cc2nc(O)c(O)nc2cc1C | -0.52 | 3300
O=Nc1c(O)nc2ccc(Cl)c(Cl)c2c1O | 0.77 | 170
O=[N+]([O-])c1c(O)nc2cccc(Cl)c2c1O | -1.78 | 61000
Oc1nc2ccc(Cl)cc2nc1O | -0.25 | 1800
Cc1cc2nc(O)c(O)nc2cc1Cl | 0.11 | 780
Oc1cc2nc(O)c(O)nc2cc1O | -2 | > 100000
COc1cc2nc(O)c(O)nc2cc1OC | -1.23 | 17000
O=Nc1c(O)nc2ccccc2c1O | -0.15 | 1400
Oc1nc2cc(Cl)c(Cl)cc2nc1O [2,3-DIHYDROXY-6,7-DICHLOROQUINOXALINE] | 0.89 | 130
Cc1c(Cl)cc2nc(O)c(O)nc2c1N | 0.82 | 150
CCc1cc2nc(O)c(O)nc2cc1Cl | -0.15 | 1400
Oc1nc2ncccc2c(O)c1-c1cccc(Oc2ccccc2)c1 | -1.49 | 31000
Oc1nc2cc(Cl)c(Cl)c(Cl)c2nc1O | 1.53 | 30
COc1cc2nc(O)c(O)nc2c(OC(C)=O)c1OC | -1.72 | 53000
Oc1nc2ncc(Cl)cc2c(O)c1-c1ccccc1 | -2 | > 100000
Oc1nc2cc(Cl)cnc2c(O)c1-c1cccs1 | -0.99 | 9800
O=[N+]([O-])c1c(OCCCc2ccccc2)c(F)cc2nc(O)c(O)nc12 | -0.6 | 4000
Cc1cc(C)c2nc(O)c(O)nc2c1 | -0.32 | 2100
Cc1cccc(-c2c(O)nc3cc(Cl)cnc3c2O)c1 | -0.25 | 1800
Cc1cc([N+](=O)[O-])c2nc(O)c(O)nc2c1 | -0.97 | 9300
COc1c(F)cc2nc(O)c(O)nc2c1[N+](=O)[O-] | -0.28 | 1900
O=[N+]([O-])c1c(O)nc2cc(Cl)cc(Cl)c2c1O | 0.66 | 220
CCc1cc2nc(O)c(O)nc2cc1CC | -0.26 | 1800
O=Nc1c(O)nc2c(F)c(Cl)c(F)cc2c1O | 0.04 | 910
Oc1nc2cc(Cl)cnc2c(O)c1-c1ccc(Cl)cc1 | -1.11 | 13000
CCOc1c(F)cc2nc(O)c(O)nc2c1[N+](=O)[O-] | -0.56 | 3600
COc1c(Cl)cc2nc(O)c(O)nc2c1[N+](=O)[O-] | 0.82 | 150

Compound | Log 1/IC50 [1] | IC50 [2] [nM]
O=[N+]([O-])c1c(O)nc2cc(Cl)c(Cl)cc2c1O | 0.4 | 400
O=[N+]([O-])c1c(O)nc2c(Cl)c(Cl)c(Cl)cc2c1O | -2 | > 100000
O=Nc1c(O)nc2cc(Cl)c(Cl)c(Cl)c2c1O | 2.15 | 7
O=Nc1c(O)nc2ccc(Cl)cc2c1O | -0.53 | 3400
Cc1c(Br)cc2nc(O)c(O)nc2c1[N+](=O)[O-] | 2.06 | 8.7
O=[N+]([O-])c1c(O)nc2cc(Cl)ccc2c1O | -0.18 | 1500
O=Nc1c(O)nc2cc(Cl)cc(Cl)c2c1O | 1.48 | 33
Oc1nc2cc(Cl)cnc2c(O)c1Oc1cccc(-c2ccccc2)c1 | 1.64 | 23
Oc1nc2cc(Cl)cnc2c(O)c1-c1cccc(Cl)c1 | -0.48 | 3000
Cc1cc2nc(O)c(O)nc2c([N+](=O)[O-])c1Cl | 1.35 | 45
Oc1nc2ccccc2nc1O | -0.99 | 9800
O=[N+]([O-])c1c(O)nc2cc(Cl)c(Cl)c(Cl)c2c1O | 0.66 | 220
O=Nc1c(O)nc2cc(Cl)c(Cl)cc2c1O | 1.92 | 12
O=[N+]([O-])c1c(O)nc2c(F)c(F)c(F)c(F)c2c1O | -2 | > 100000
Oc1nc2cc(Cl)cnc2c(O)c1-c1ccsc1 | -0.63 | 4300
O=[N+]([O-])c1c(O)nc2c(Cl)cccc2c1O | -2 | > 100000
O=[N+]([O-])c1c(O)nc2c(F)c(Cl)c(F)cc2c1O | -1.6 | 40000
Cc1cc2nc(O)c(O)nc2c([N+](=O)[O-])c1C | 1.54 | 29
Oc1nc2ncc(Cl)cc2c(O)c1-c1cccc(Oc2ccccc2)c1 | -1.28 | 19000
Oc1nc2cc(Cl)cc(Cl)c2nc1O | 0.55 | 280
COc1cc2nc(O)c(O)nc2cc1Br | 0 | 1000
O=Nc1c(O)nc2c(Cl)cccc2c1O | -2 | > 100000
Oc1nc2cc(Cl)cnc2c(O)c1-c1ccccc1Cl | -1.38 | 24000
Oc1nc2cc(F)c(Cl)c(F)c2nc1O | 0.2 | 630
CCc1cc2nc(O)c(O)nc2c([N+](=O)[O-])c1CC | 0.8 | 160
